Values joined by “and” are separate entries in the source; they are usually repeats but may differ in a detail not shown here. Identical values can stand only once. Inconclusive results and toxic doses are left out. The calls were made as follows: active = survival T/C of 150% or more; inactive = T/C below 125% in these data.
System: BDF1 mice, P388 leukemia ip, median survival T/C
Experiment: NCI In Vivo Anticancer Drug Screen. Data for tumor model P388 Leukemia (intraperitoneal) in B6D2F1 (BDF1) mice
Conditions: endpoint: median survival time, higher = longer survival
Outline: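 Antitumour effect was judged in vivo: survival in drug-treated mice, normalised to that of vehicle-dosed controls, gives the reported T/C.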

[1] = dose: 50.0 mg/kg/injection, schedule: Q01DX009 (ip), vehicle: Klucel (hydroxypropylcellulose) (HPC)
[2] = dose: 100.0 mg/kg/injection, schedule: Q01DX009 (ip), vehicle: Klucel (hydroxypropylcellulose) (HPC)
[3] = dose: 100.0 mg/kg/injection, schedule: Q01DX009 (ip), vehicle: saline with Tween-80
[4] = dose: 100.0 mg/kg/injection, schedule: Q04DX003 (ip), vehicle: saline with Tween-80
[5] = dose: 200.0 mg/kg/injection, schedule: Q01DX009 (ip), vehicle: saline with Tween-80
[6] = dose: 200.0 mg/kg/injection, schedule: Q04DX003 (ip), vehicle: saline with Tween-80
[7] = dose: 400.0 mg/kg/injection, schedule: Q01DX009 (ip), vehicle: saline with Tween-80
[8] = dose: 400.0 mg/kg/injection, schedule: Q04DX003 (ip), vehicle: saline with Tween-80
[9] = dose: 25.0 mg/kg/injection, schedule: Q01DX009 (ip), vehicle: Klucel (hydroxypropylcellulose) (HPC)
[10] = dose: 50.0 mg/kg/injection, schedule: Q01DX009 (ip), vehicle: saline with Tween-80
[11] = dose: 25.0 mg/kg/injection, schedule: Q01DX009 (ip), vehicle: saline with Tween-80
[12] = dose: 100.0 mg/kg/injection, schedule: Q04DX003 (ip), vehicle: saline
[13] = dose: 200.0 mg/kg/injection, schedule: Q04DX003 (ip), vehicle: saline
[14] = dose: 400.0 mg/kg/injection, schedule: Q04DX003 (ip), vehicle: saline
[15] = dose: 100.0 mg/kg/injection, schedule: Q01DX009 (ip), vehicle: saline

Measured: T/C

O=S(=O)(NC(=S)Nc1ccc(Cl)cc1)c1ccccc1
inactive: [1] 113 % of control | [2] 118 % of control | dose: 150.0 mg/kg/injection, schedule: Q04DX003 (ip), vehicle: Klucel (hydroxypropylcellulose) (HPC) 113 % of control | dose: 225.0 mg/kg/injection, schedule: Q04DX003 (ip), vehicle: Klucel (hydroxypropylcellulose) (HPC) 117 % of control | dose: 335.0 mg/kg/injection, schedule: Q04DX003 (ip), vehicle: Klucel (hydroxypropylcellulose) (HPC) 113 % of control

CCCCCCCCCCCCCCCC(=O)N(c1ccc(N)cc1)C(C)CCCN(CC)CC (configuration not stated)
inactive: [3] 89 % of control | [4] 90 % of control | [5] 98 % of control | [6] 90 % of control | [7] 100 % of control | [8] 90 % of control

CC(C)C1C(C)N1C(C)C (configuration not stated)
inactive: [9] 100 % of control | dose: 25.0 mg/kg/injection, schedule: Q04DX003 (ip), vehicle: Klucel (hydroxypropylcellulose) (HPC) 100 % of control | [1] 100 % of control | dose: 50.0 mg/kg/injection, schedule: Q04DX003 (ip), vehicle: Klucel (hydroxypropylcellulose) (HPC) 100 % of control | [2] 95 % of control | dose: 100.0 mg/kg/injection, schedule: Q04DX003 (ip), vehicle: Klucel (hydroxypropylcellulose) (HPC) 104 % of control

CCCCN(CCCC)CCNc1ccc(Cl)c2oc3cc(C)ccc3c(=O)c12
inactive: [10] 100 % of control | [3] 104 % of control | [4] 100 % of control | [5] 104 % of control | [6] 100 % of control

CCCCOCN(COCCCC)C(C)(C)C
inactive: dose: 100.0 mg/kg/injection, schedule: Q01DX001 (ip), vehicle: saline 120 % of control | dose: 200.0 mg/kg/injection, schedule: Q01DX001 (ip), vehicle: saline 110 % of control

CS(=O)(=O)OCCN(CCOS(C)(=O)=O)c1ccc(C=O)cc1
active: dose: 3.0 mg/kg/injection, schedule: Q04DX003 (ip), vehicle: saline with Tween-80 227 % of control | dose: 3.13 mg/kg/injection, schedule: Q01DX009 (ip), vehicle: saline with Tween-80 210 % of control | dose: 5.0 mg/kg/injection, schedule: Q04DX003 (ip), vehicle: saline with Tween-80 177 % of control | dose: 6.25 mg/kg/injection, schedule: Q01DX009 (ip), vehicle: saline with Tween-80 229 % of control | dose: 8.0 mg/kg/injection, schedule: Q01DX009 (ip), vehicle: saline with Tween-80 237 % of control | dose: 8.0 mg/kg/injection, schedule: Q04DX003 (ip), vehicle: saline with Tween-80 181 % of control | dose: 8.25 mg/kg/injection, schedule: Q04DX003 (ip), vehicle: saline with Tween-80 195 % of control | dose: 12.0 mg/kg/injection, schedule: Q01DX009 (ip), vehicle: saline with Tween-80 212 % of control | dose: 12.5 mg/kg/injection, schedule: Q01DX009 (ip), vehicle: saline with Tween-80 231 % of control and 176 % of control | dose: 12.5 mg/kg/injection, schedule: Q04DX003 (ip), vehicle: saline with Tween-80 212 % of control | dose: 18.0 mg/kg/injection, schedule: Q01DX009 (ip), vehicle: saline with Tween-80 250 % of control | dose: 18.75 mg/kg/injection, schedule: Q04DX003 (ip), vehicle: saline with Tween-80 250 % of control
inactive: [11] 86 % of control

Cc1ccc(Cl)c([N+](=O)[O-])c1N
inactive: [10] 104 % of control | [3] 87 % of control | [5] 91 % of control

C/C(=N\N=C(N)N)c1ccc(NC(=O)Nc2ccc(/C(C)=N/N=C(N)N)cc2)cc1
active: dose: 5.4 mg/kg/injection, schedule: Q04DX003 (ip), vehicle: saline 150 % of control | dose: 44.0 mg/kg/injection, schedule: Q04DX003 (ip), vehicle: saline 163 % of control | [12] 154 % of control | [13] 179 % of control | dose: 264.0 mg/kg/injection, schedule: Q04DX003 (ip), vehicle: saline 180 % of control and 222 % of control | [14] 236 % of control and 241 % of control and 190 % of control
inactive: dose: 1.5 mg/kg/injection, schedule: Q04DX003 (ip), vehicle: saline 115 % of control | dose: 66.0 mg/kg/injection, schedule: Q04DX003 (ip), vehicle: saline 118 % of control

Clc1cc(C(Cl)(Cl)Cl)ccc1C(Cl)(Cl)Cl
inactive: dose: 100.0 mg/kg/injection, schedule: Q01DX001 (ip), vehicle: saline with Tween-80 100 % of control | dose: 200.0 mg/kg/injection, schedule: Q01DX001 (ip), vehicle: saline with Tween-80 104 % of control | dose: 400.0 mg/kg/injection, schedule: Q01DX001 (ip), vehicle: saline with Tween-80 95 % of control

O=[N+]([O-])c1ccc(N2CCN(c3ccc([N+](=O)[O-])c4c3no[n+]4[O-])CC2)c2c1no[n+]2[O-]
inactive: dose: 15.0 mg/kg/injection, schedule: Q04DX003 (ip), vehicle: saline with Tween-80 111 % of control | dose: 30.0 mg/kg/injection, schedule: Q04DX003 (ip), vehicle: saline with Tween-80 106 % of control | dose: 60.0 mg/kg/injection, schedule: Q04DX003 (ip), vehicle: saline with Tween-80 101 % of control

Cc1c2oc3c(C)ccc(C(=O)NC(C)Cc4ccccc4)c3nc-2c(C(=O)NC(C)Cc2ccccc2)c(N)c1=O (configuration not stated)
inactive: dose: 100.0 mg/kg/injection, schedule: Q04DX002 (ip), vehicle: DMSO 87 % of control | dose: 200.0 mg/kg/injection, schedule: Q04DX002 (ip), vehicle: DMSO 92 % of control

CC(=O)OC1CCC2(C)C(CC(=O)C(C)C23CCC2(C=COC2)O3)C1(C)C (configuration not stated)
inactive: dose: 25.0 mg/kg/injection, schedule: Q01DX009 (ip), vehicle: saline 113 % of control | dose: 50.0 mg/kg/injection, schedule: Q01DX009 (ip), vehicle: saline 105 % of control | [3] 109 % of control | [15] 122 % of control | [5] 102 % of control

COc1cccc(NC(=O)N2CCCCC2)c1
inactive: [9] 111 % of control | [1] 111 % of control | [2] 114 % of control | dose: 200.0 mg/kg/injection, schedule: Q01DX009 (ip), vehicle: Klucel (hydroxypropylcellulose) (HPC) 114 % of control

NC(=S)NN1C2CSC1CS2
inactive: dose: 22.5 mg/kg/injection, schedule: Q01DX009 (ip), vehicle: saline with Tween-80 100 % of control | dose: 45.0 mg/kg/injection, schedule: Q01DX009 (ip), vehicle: saline with Tween-80 110 % of control | dose: 90.0 mg/kg/injection, schedule: Q01DX009 (ip), vehicle: saline with Tween-80 108 % of control

C=C(C)C(=O)OC1C(C(C)CCCO)=C(CO)CC2OC(=O)C(=C)C21 (configuration not stated)
active: dose: 32.0 mg/kg/injection, schedule: Q01DX009 (ip), vehicle: saline + alcohol 152 % of control
inactive: dose: 2.0 mg/kg/injection, schedule: Q01DX009 (ip), vehicle: saline + alcohol 104 % of control | dose: 4.0 mg/kg/injection, schedule: Q01DX009 (ip), vehicle: saline + alcohol 109 % of control | dose: 8.0 mg/kg/injection, schedule: Q01DX009 (ip), vehicle: saline + alcohol 114 % of control | dose: 16.0 mg/kg/injection, schedule: Q01DX009 (ip), vehicle: saline + alcohol 109 % of control

C[Si](C)(C)O/C=C1/CCOC1=O
inactive: [10] 102 % of control | [3] 110 % of control | [5] 119 % of control | [7] 117 % of control

Ic1ccccc1C[N+]12CN3CN(CN(C3)C1)C2
inactive: [10] 108 % of control | dose: 60.0 mg/kg/injection, schedule: Q01DX009 (ip), vehicle: alcohol 95 % of control | dose: 85.0 mg/kg/injection, schedule: Q01DX009 (ip), vehicle: alcohol 95 % of control | [3] 120 % of control | [15] 115 % of control | [4] 110 % of control | [12] 118 % of control | dose: 132.0 mg/kg/injection, schedule: Q01DX009 (ip), vehicle: saline with Tween-80 111 % of control | [6] 110 % of control | [13] 113 % of control | dose: 300.0 mg/kg/injection, schedule: Q01DX009 (ip), vehicle: saline with Tween-80 100 % of control and 123 % of control | [8] 95 % of control | [14] 113 % of control

O=C(O)C1C2CC1C(Cl)C2Cl (configuration not stated)
inactive: [10] 106 % of control | [3] 106 % of control | [5] 106 % of control

NCCNc1ccc(NCCN)c2c1C(=O)c1ccccc1C2=O
active: dose: 6.25 mg/kg/injection, schedule: Q01DX009 (ip), vehicle: other 214 % of control

CCOC(=O)C(CC)(CCC(C)C)C(=O)OCC
inactive: [11] 95 % of control | [10] 95 % of control | [3] 100 % of control

Source: PubChem BioAssay AID328 (DTP/NCI, 2004)
